From ChEMBL document CHEMBL1201862, “PubChem BioAssay data set” (2004)
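96-well plates; 48 h exposure; 5 concentrations. Endpoints by linear interpolation between flanking doses. Not reached: highest tested concentration assigned. Here, GI50 denotes the concentration required for 50% inhibition of growth.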 Activity calls are given as the source filed them. No stated cut-off is given here; in the data, active = GI50 up to about 1.1 µM and inactive = higher. Where a SMILES comes first, the peptide text is derived from it. Non-standard residues stand in square brackets, D forms with d. Residues, ends and D or L forms follow the SMILES beside them. [ ]: non-standard residue; d: D form. The star is where a group is joined. mTyr = N[CH](Cc1cccc(O)c1)C(=O)O; Cbz = O=C(OCc1ccccc1)*; OBn = c1ccc(CO*)cc1

Key:
Test in all cases: DTP human tumour cell line panel, 48 h
BT-549 = tested on: BT-549
CAKI-1 = tested on: CAKI-1
HL-60 = tested on: HL-60
HOP-62 = tested on: HOP-62
Hs-578T = tested on: Hs-578T
IGROV-1 = tested on: IGROV-1
K562 = tested on: K562
LOX IMVI = tested on: LOX IMVI
M14 = tested on: M14
MDA-MB-435 = tested on: MDA-MB-435
NCI-H460 = tested on: NCI-H460
NCI/ADR-RES = tested on: NCI/ADR-RES
OVCAR-5 = tested on: OVCAR-5
SF-295 = tested on: SF-295
SW-620 = tested on: SW-620
UO-31 = tested on: UO-31
NCI-H522 = tested on: NCI-H522
RXF 393 = tested on: RXF 393
U-251 = tested on: U-251

SMILES	GI50 (BT-549)	GI50 (CAKI-1)	GI50 (HL-60)	GI50 (HOP-62)	GI50 (Hs-578T)	GI50 (IGROV-1)	GI50 (K562)	GI50 (LOX IMVI)	GI50 (M14)	GI50 (MDA-MB-435)	GI50 (NCI-H460)	GI50 (NCI/ADR-RES)	GI50 (OVCAR-5)	GI50 (SF-295)	GI50 (SW-620)	GI50 (UO-31)	GI50 (NCI-H522)	GI50 (RXF 393)	GI50 (U-251)
Cc1cc(-c2cscn2)c(O)c([N+](=O)[O-])c1	77.6 µM (inactive)	43 µM (inactive)	34.8 µM (inactive)	52.7 µM (inactive)	90.8 µM (inactive)	55 µM (inactive)	34.2 µM (inactive)	29.4 µM (inactive)	90.4 µM (inactive)	74.3 µM (inactive)	34.2 µM (inactive)	46.5 µM (inactive)	> 100 µM (inactive)	0.906 µM (active)	75.7 µM (inactive)	50.2 µM (inactive)	–	–	–
COc1ccccc1NC(=O)C(C#N)=C(SC)SC	> 100 µM (inactive)	61 µM (inactive)	> 100 µM (inactive)	> 100 µM (inactive)	> 100 µM (inactive)	51.9 µM (inactive)	> 100 µM (inactive)	> 100 µM (inactive)	> 100 µM (inactive)	> 100 µM (inactive)	94.2 µM (inactive)	–	> 100 µM (inactive)	> 100 µM (inactive)	> 100 µM (inactive)	> 100 µM (inactive)	> 100 µM (inactive)	> 100 µM (inactive)	> 100 µM (inactive)
COc1ccc(NC(=O)CC(=O)N2N=C(C)C(/N=N/c3ccc(C(=O)O)cc3)C2=O)cc1 (stereo not given)	–	> 100 µM (inactive)	> 100 µM (inactive)	> 100 µM (inactive)	> 100 µM (inactive)	> 100 µM (inactive)	> 100 µM (inactive)	94 µM (inactive)	> 100 µM (inactive)	> 100 µM (inactive)	> 100 µM (inactive)	> 100 µM (inactive)	> 100 µM (inactive)	> 100 µM (inactive)	> 100 µM (inactive)	> 100 µM (inactive)	> 100 µM (inactive)	> 100 µM (inactive)	> 100 µM (inactive)
CSCC[C@H](NC(=O)[C@@H](N)CC(N)=O)C(=O)N[C@@H](Cc1c[nH]c2ccccc12)C(=O)N[C@@H](CCC(N)=O)C(=O)N[C@@H](CCC(=O)O)C(=O)N[C@H](C(=O)NCC(=O)N[C@@H](CCCCN)C(=O)N[C@H](C)C(=O)O)C(C)C (H-NMWQEVGK[dA]-OH)	–	> 100 µM (inactive)	> 100 µM (inactive)	> 100 µM (inactive)	> 100 µM (inactive)	> 100 µM (inactive)	> 100 µM (inactive)	> 100 µM (inactive)	> 100 µM (inactive)	> 100 µM (inactive)	> 100 µM (inactive)	> 100 µM (inactive)	> 100 µM (inactive)	> 100 µM (inactive)	> 100 µM (inactive)	–	–	> 100 µM (inactive)	> 100 µM (inactive)
CC(C)OCC(O)COc1ccc2ccc(=O)oc2c1 (stereo not given)	–	> 100 µM (inactive)	> 100 µM (inactive)	> 100 µM (inactive)	> 100 µM (inactive)	> 100 µM (inactive)	> 100 µM (inactive)	> 100 µM (inactive)	> 100 µM (inactive)	> 100 µM (inactive)	> 100 µM (inactive)	> 100 µM (inactive)	> 100 µM (inactive)	> 100 µM (inactive)	> 100 µM (inactive)	> 100 µM (inactive)	> 100 µM (inactive)	–	> 100 µM (inactive)
CC1=C(N2CC2)C(=O)c2ccccc2C1=O	–	0.556 µM (active)	2.52 µM (inactive)	1.04 µM (active)	1.36 µM (inactive)	1.47 µM (inactive)	0.783 µM (active)	1.22 µM (inactive)	1.22 µM (inactive)	1.51 µM (inactive)	0.454 µM (active)	1.06 µM (active)	0.402 µM (active)	0.618 µM (active)	0.185 µM (active)	0.78 µM (active)	0.444 µM (active)	0.422 µM (active)	0.895 µM (active)
CC(C)(C)/N=C1\C(=O)C2(C)CCC1C2(C)C (stereo not given)	> 100 µM (inactive)	> 100 µM (inactive)	–	> 100 µM (inactive)	–	> 100 µM (inactive)	> 100 µM (inactive)	> 100 µM (inactive)	> 100 µM (inactive)	> 100 µM (inactive)	> 100 µM (inactive)	> 100 µM (inactive)	> 100 µM (inactive)	> 100 µM (inactive)	> 100 µM (inactive)	> 100 µM (inactive)	–	> 100 µM (inactive)	> 100 µM (inactive)
CCN(CC)CCOCCn1c2c(c3ccccc31)CCCC2	–	–	9.73 µM (inactive)	17.2 µM (inactive)	20 µM (inactive)	18.9 µM (inactive)	13.6 µM (inactive)	19.5 µM (inactive)	16.9 µM (inactive)	17.8 µM (inactive)	22.8 µM (inactive)	12.7 µM (inactive)	23.3 µM (inactive)	38.5 µM (inactive)	17.1 µM (inactive)	14.5 µM (inactive)	–	–	17.2 µM (inactive)
CC(C)(C)/N=c1/n(C(C)(C)C)oc(=O)n1-c1ccccc1	–	> 50 µM (inactive)	41.1 µM (inactive)	> 50 µM (inactive)	> 50 µM (inactive)	> 50 µM (inactive)	> 50 µM (inactive)	> 50 µM (inactive)	> 50 µM (inactive)	> 50 µM (inactive)	> 50 µM (inactive)	> 50 µM (inactive)	> 50 µM (inactive)	> 50 µM (inactive)	> 50 µM (inactive)	> 50 µM (inactive)	> 50 µM (inactive)	> 50 µM (inactive)	> 50 µM (inactive)
O=C1NCC2(CCNCC2)N1c1ccccc1	–	> 100 µM (inactive)	> 100 µM (inactive)	> 100 µM (inactive)	> 100 µM (inactive)	> 100 µM (inactive)	> 100 µM (inactive)	> 100 µM (inactive)	> 100 µM (inactive)	> 100 µM (inactive)	> 100 µM (inactive)	> 100 µM (inactive)	> 100 µM (inactive)	> 100 µM (inactive)	> 100 µM (inactive)	–	> 100 µM (inactive)	> 100 µM (inactive)	> 100 µM (inactive)
O=C(O)CC[N+]1=CCC(c2ccccc2)(c2ccccc2)O1	> 100 µM (inactive)	> 100 µM (inactive)	–	> 100 µM (inactive)	> 100 µM (inactive)	> 100 µM (inactive)	> 100 µM (inactive)	–	> 100 µM (inactive)	> 100 µM (inactive)	> 100 µM (inactive)	–	> 100 µM (inactive)	> 100 µM (inactive)	> 100 µM (inactive)	> 100 µM (inactive)	> 100 µM (inactive)	> 100 µM (inactive)	> 100 µM (inactive)
COc1cc(/C=C2\C(=O)N(c3cc(Cl)ccc3Cl)C(c3ccccc3)S2(=O)=O)cc(OC)c1OC (stereo not given)	83.2 µM (inactive)	> 100 µM (inactive)	19.2 µM (inactive)	> 100 µM (inactive)	–	28.3 µM (inactive)	31 µM (inactive)	55.6 µM (inactive)	40.6 µM (inactive)	27.7 µM (inactive)	> 100 µM (inactive)	34.1 µM (inactive)	38.5 µM (inactive)	51.5 µM (inactive)	33.7 µM (inactive)	46.8 µM (inactive)	29.5 µM (inactive)	> 100 µM (inactive)	86.1 µM (inactive)
CCCCCCn1c(SC)nc(COC(=O)NC)c1COC(=O)NC	19.5 µM (inactive)	15.7 µM (inactive)	19.6 µM (inactive)	19.6 µM (inactive)	20.4 µM (inactive)	15.3 µM (inactive)	19.3 µM (inactive)	21.3 µM (inactive)	21.3 µM (inactive)	19.7 µM (inactive)	18.1 µM (inactive)	25.5 µM (inactive)	19.9 µM (inactive)	20.2 µM (inactive)	19.2 µM (inactive)	16.9 µM (inactive)	11.4 µM (inactive)	–	–
COC(=O)C(Cc1cccc(O)c1)NC(=O)C(CC(=O)OCc1ccccc1)NC(=O)OCc1ccccc1 (stereo not given) (Cbz-Asp(OBn)-[mTyr]-OMe; configuration not given here)	> 100 µM (inactive)	–	35.4 µM (inactive)	> 100 µM (inactive)	> 100 µM (inactive)	30.6 µM (inactive)	> 100 µM (inactive)	–	> 100 µM (inactive)	–	15.4 µM (inactive)	–	> 100 µM (inactive)	–	> 100 µM (inactive)	65.3 µM (inactive)	–	> 100 µM (inactive)	> 100 µM (inactive)
CC1(C)CCC[C@]2(C)[C@@H]1CC[C@@]13O[C@@H]1C1=C(CO)C(=O)OC1=C[C@@H]23	22 µM (inactive)	18.8 µM (inactive)	–	25.6 µM (inactive)	–	5.68 µM (inactive)	21.4 µM (inactive)	–	15.8 µM (inactive)	20.5 µM (inactive)	18.2 µM (inactive)	15.8 µM (inactive)	9.71 µM (inactive)	16.9 µM (inactive)	18.9 µM (inactive)	11.7 µM (inactive)	10.1 µM (inactive)	19.9 µM (inactive)	24.4 µM (inactive)
FC1(F)[Se]C2C3CCC(C3)C2C1(F)F (stereo not given)	–	> 100 µM (inactive)	–	> 100 µM (inactive)	> 100 µM (inactive)	> 100 µM (inactive)	–	> 100 µM (inactive)	> 100 µM (inactive)	> 100 µM (inactive)	> 100 µM (inactive)	> 100 µM (inactive)	> 100 µM (inactive)	35.2 µM (inactive)	> 100 µM (inactive)	> 100 µM (inactive)	> 100 µM (inactive)	> 100 µM (inactive)	> 100 µM (inactive)
